Columns and labels:
[1] = tested on: tetradecanoyl phorbol acetate (TPA)-induced edema in murine ear; assay: Topical anti-inflammatory activity, TPA-induced mouse ear edema; assay type: in vivo, male CF1 mice; conditions: in acetone just prior to 1 μg TPA, 4 hours after TPA
Experimental: Topical application of tetradecanoyl phorbol acetate (TPA) to murine skin results in an inflammatory reaction characterized by edema, a dense cellular infiltration 4-6 hours later, and an epidermal hyperplasia 24 hours following application.
To evaluate the antiinflammatory activity of certain compounds within the scope of the present invention, TPA was applied topically to ear epidermal tissue of male CF1 mice 4-6 weeks old. One μg of TPA in acetone was applied topically to one ear, while acetone only was applied to the contralateral ear of each mouse. Test compounds to be evaluated as antiinflammatory agents were applied to both ears in acetone just prior to application of TPA. Four hours after the application of the TPA, the animals were sacrificed, and 6 mm disks of tissue were excised from each treated ear and weighed. The relative amount of edema was then assessed by determining the difference in mass between control and TPA-treated tissue samples.

porcine pancreatic PLA2 = porcine pancreatic PLA2 (Sus scrofa, UniProt P00592); assay: Inhibition of porcine pancreatic phospholipase A2 (PLA2); assay type: biochemical; conditions: pH 8.5, 37°, 5 minutes, 14.0 uM substrate; approximation from semilog plot
Experimental: Inhibition of porcine pancreatic PLA2 was measured by a modification of the assay used by Hirata et al., Proc. Natl. Acad. Sci. USA 77:533 (1980). The enzyme-substrate reaction was run in a total volume of 0.1 mL with the enzyme at a final concentration of 19 units/mL (0.025 ug protein/mL) which gave approximately 4000-8000 dpm of activity in a buffer containing 25 mM Tris, 25 mM glycylglycine, 25 mM CaCl2 and 0.75 mM EDTA (tetra sodium salt), pH 8.5. Compounds to be tested as inhibitors were added to an aliquot of enzyme and incubated for 2 minutes, and then the substrate, [arachidonyl-1-^14 C] L-1-palmitoyl-2-arachidonyl phosphatidylcholine was added to provide a final concentration of 14.0 uM (80,000 dpm). The reaction was allowed to proceed for five minutes at 37°, and then halted by freezing the mixture in a dry ice-ethanol slurry. The arachidonic acid product was separated from unreacted substrate using silica gel columns.
All reactions were run in duplicate. Compounds to be tested were dissolved in 0.2M Tris-Cl, pH 8.5 or dissolved in DMSO and then diluted with Tris-Cl buffer (maximum DMSO concentration, 7%). An approximation of IC50 (the concentration of compound which inhibits the phospholipase activity by 50 percent) was determined for each compound from a semilog plot of percent inhibition versus the final inhibitor concentration.

[2] = tested on: spontaneous hypertensive rat (SHR); assay: Antihypertensive activity in the spontaneous hypertensive rat (SHR), intravenous; assay type: in vivo; set-up: key to Blood pressure response: ++: Pronounced decrease in blood pressure (>50 mm Hg); +: Moderate decrease in blood pressure (35-50 mm Hg); ±: Threshold decrease in blood pressure (25-35 mm Hg); NE: No effect observed; conditions: for Blood pressure response: SHR
Experimental: In this procedure, anesthetized rats were dosed intravenously with graded dose levels the test compound on a cumulative dose schedule. The test compound was administered in an aqueous 0.25% methylcellulose vehicle at a volume to body weight ratio of 1 mL/kg. Arterial blood pressure was continuously recorded directly through an arterial cannula and a polygraph. That dose of compound producing a reduction in mean blood pressure of 30 mm Hg, or ED30, was then determined. In this manner, an ED30 of 2.00 mg/kg was determined for compound 13BII.
The antihypertensive activity of other compounds within the scope of the present invention was determined by methods substantially similar to those reported in Example 2, above, except that intravenous dosage levels of 2 and 12 mg/kg were employed. The designation "prolonged" indicates a hypotensive response lasting from 15-30 minutes. The following designations are employed to indicate the magnitude of hypotensive response: […]

Chain of porcine pancreatic PLA2 (P00592 23-146): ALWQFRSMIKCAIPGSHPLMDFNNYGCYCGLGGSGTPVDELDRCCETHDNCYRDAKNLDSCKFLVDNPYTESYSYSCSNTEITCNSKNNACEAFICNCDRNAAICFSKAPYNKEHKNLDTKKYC

Row | IC50 (porcine pancreatic PLA2) | Compound | Ear Volume Reduction (%) [1] | Blood pressure response ([2]; 2 mg/kg) | Blood pressure response ([2]; 12 mg/kg) | ED (30 mm Hg) ([2]; Rattus norvegicus, anesthetized SHR, cumulative dose schedule, aqueous 0.25% methylcellulose, read-out: ED30 (dose of compound producing a reduction in mean blood pressure of 30 mm Hg))
1 | 0.52 µM | CCCCCCCCCCCCCCCCCCSCC(COP(=O)([O-])OCC[N+](C)(C)C)NC(C)=O (stereo not shown) [Compound 10B, 3-Octadecylthio-2-acetamidophosphatidylcholine] | 10% | ++ (Pronounced decrease in blood pressure (>50 mm Hg)) |  | 
2 | 9 µM | CCCCCCCCSCC(COP(=O)([O-])OCC[N+](C)(C)C)NC(C)=O (stereo not shown) [Compound 10D] |  | NE | ++ (Pronounced decrease in blood pressure (>50 mm Hg)) | 
3 | 18 µM | CCCCCCCCCCCCCCCCSCC(COP(=O)([O-])OCC[N+](C)(C)C)NC(=O)OC (stereo not shown) [Compound 13CII] |  | ++ (Pronounced decrease in blood pressure (>50 mm Hg)) |  | 
4 | 1.4 µM | CCCCCCCCCCCCCCCCSCC(COP(=O)([O-])OCC[N+](C)(C)C)NC(=O)c1ccccc1 (stereo not shown) [Compound 13CIV] | 57% | NE | ± (Threshold decrease in blood pressure (25-35 mm Hg)) | 
5 | 0.55 µM | CCCCCCCCCCCCCCCCCCSCC(COP(=O)([O-])OCC[N+](C)(C)C)NC(=O)CCCCCCCCCCCCCCCCC (stereo not shown) [Compound 13BI] |  |  |  | 
6 | 19 µM | CCCCCCCCCCCCCCCCCCSCC(COP(=O)([O-])OCC[N+](C)(C)C)NC(=O)OC (stereo not shown) [Compound 13BII, 3-octadecylthio-2-carbomethoxyamidophosphatidylcholine] |  | ± (Threshold decrease in blood pressure (25-35 mm Hg)) | ++ (Pronounced decrease in blood pressure (>50 mm Hg)) | 2 mg/kg
7 | 98 µM | CCCCCCSCC(COP(=O)([O-])OCC[N+](C)(C)C)NC(C)=O (stereo not shown) [Compound 10E] |  |  |  | 
8 | 1.1 µM | CCCCCCCCCCCCCCCCSCC(COP(=O)([O-])OCC[N+](C)(C)C)NC(C)=O (stereo not shown) [Compound 10C] |  |  |  | 
